≈ marks a conversion by molar mass, not a printed value. Where two headings read alike, the source gives them in different places.
Key:
[1] = system: Staphylococcus epidermidis IAM 1296; assay: MIC, Experiment 1; format: cell-based; conditions: IAM1296, S. epidermidis IAM 1296, Gram +, read-out: Min. inhib. concentr. (MIC)
Description: The compounds of the present invention ([…] and Q) were each dissolved in dimethylsulfoxide to prepare a solution of 5000 μg/ml in concentration. The compounds of the present invention (I, J and K) and the known compound (Y) were each dissolved in sterilized distilled water to prepare a solution of 5000 μg/ml in concentration. […] The test was carried out by a method as appointed by Japan Society of Chemotherapy [cf. Chemotherapy, 29, 76-79 (1981), TOKYO]. As to Streptococcus pneumoniae and Streptococcus pyogenes, Brain heart infusion broth (manufactured by DIFCO) was used as the medium for the preculture thereof, and a heart infusion agar medium containing 5% defibrinated horse blood (manufactured by Nissui Seiyaku K. K., Japan) was used as the medium for the measurement of minimum inhibitory concentration (MIC). As to other microorganisms, a sensitivity test broth (manufactured by Nissui Seiyaku K. K.) was used as the medium for the preculture thereof, and a sensitivity test agar medium (manufactured by Nissui Seiyaku K. K.) was used as the medium for the measurement of MIC.

[2] = system: clinically isolated Enterococcus faecalis; assay: In vitro antibacterial activity against clinical isolates, Experiment 2; format: cell-based; conditions: for MIC50: 50% of strains, read-out: MIC50
Method in brief: (§1)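 Each compound was brought to a 1000 μg/ml stock with sterilized distilled water, and MICs were measured on sensitivity test agar.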

[3] = system: clinically isolated Enterococcus faecium; assay: as above; format: cell-based
Method in brief: as §1

[4] = system: clinically isolated Staphylococcus aureus; assay: as above; format: cell-based; conditions: for MIC50: 50% of strains, read-out: MIC50
Method in brief: as §1

[5] = system: Staphylococcus aureus IID 803; assay: Effect on treatment of general infectious disease (systemic infection in mice), Experiment 3; format: in vivo, Staphylococcus aureus; ddY male mice; conditions: for protective effects against infection: Experiment 3, in words; for ED50: Staphylococcus aureus, IID803, 168 h, oral, 1 h after i.p. infection, mice, survival after one week, average of several tests, read-out: 50% effective dose (ED50)
Description: (§2) Staphylococcus aureus IID 803
(§3) The test microorganism was subjected to standing culture in Brain heart infusion broth (manufactured by DIFCO) at 37° C. for 16 to 18 hours. The culture was then diluted with PBS (Dulbecco's phosphate buffered saline) to adjust the concentration of bacteria to 4×10^7 -8×10^7 CFU/ml. The mixture was mixed with an equivalent amount of 10% (w/v) Mucin (BACTO MUCIN BACTERIOLOGICAL, manufactured by Difco Co.) to prepare a bacterial suspension. The thus prepared bacterial suspension (0.5 ml each) was intraperitoneally inoculated to ddY male mice (5 weeks age, weighing 24-27 g, 5 mice in each group), to infect the animals, by which systemic infectious model was prepared.
The mice were daily observed for one week, and from the survival number of mice after one week, the 50% effective dose (ED50) was calculated by Weil method. This test was repeated several times and the average of ED50 was calculated.

[6] = Acute toxicity, Experiment 5; format: in vivo; conditions: oral, 2000 mg/kg, one week
Description: The compound (A) or (B) of the present invention was suspended in distilled water to prepare a suspension in concentration of 200 mg/ml and the compound (C) was suspended in distilled water to prepare a suspension in concentration of 100 mg/ml. The suspension was orally administered to ddY male mice (5 weeks age, weighing 19 to 24 g, 5 mice in each group), which had been fasted for 18 hours, at a rate of 2000 mg/kg body weight of the test compound.

bone marrow [7] = assay: Micronucleus test, Experiment 7; format: in vivo, ICR male mice; conditions: oral 100 to 3000 mg/kg, mouse bone marrow, 24 hours
Description: 9,1-(Methylimino)methano-7-fluoro-8-(2-fluoromethylmorpholino)-5-oxo-5H-thiazolo[3,2-a]quinoline-4-carboxylic acid (compound of Example 3) [the compound (C) of the present invention] was suspended in sterilized distilled water. The suspension was orally administered to ICR male mice (8 weeks age, weighing 30 to 36 g, 3 mice in each group) at a rate of 3000, 1000, 300 or 100 mg/kg body weight of the test compound (C). After 24 hours, these mice were killed and the bone marrow was collected and observed the presence of micronuclei.

[8] = system: Staphylococcus aureus IID 803; assay: Effect on treatment of general infectious disease (systemic infection in mice), Experiment 4; format: in vivo, Staphylococcus aureus; ddY male mice
Description: as §2
as §3, with “to 3×10^7” for “to 4×10^7 -8×10^7”, “weighing 22-29” for “weighing 24-27”, “g, 10” for “g, 5”, “prepared. One hour after the infection, a suspension of the test compound in 1% (w/v) aqueous gum arabic was orally adiministered to mice.” for “prepared.”
The mice were daily observed for one week, and from the survival number of mice after one week, the 50% effective dose (ED50) was calculated by Weil method.

bone marrow [9] = assay: Micronucleus test, Experiment 8; format: in vivo, ICR male mice; conditions: oral 300, 1000, 3000 mg/kg, mouse bone marrow, 24 or 48 hours
Description: The compound (B) or (E) of the present invention was suspended in 1% aqueous gum arabic. The suspension was orally administered to ICR male mice (7-8 weeks age, weighing 30 to 39 g, 5 mice in each group) at a rate of 3000, 1000 or 300 mg/kg body weight of the test compound (B) or (E). After 24 hours or 48 hours, these mice were killed and the bone marrow was collected and observed the presence of micronuclei.

[10] = 25 clinical strains E. faecalis
[11] = 25 clinical strains E. faecalis, 90% of strains, read-out: MIC90
[12] = 25 clinical strains E. faecium, 50% of strains, read-out: MIC50
[13] = 25 clinical strains E. faecium, 90% of strains, read-out: MIC90
[14] = 25 clinical strains S. aureus incl. 16 methicillin resistant
[15] = 25 clinical strains S. aureus incl. 16 methicillin resistant, 90% of strains, read-out: MIC90

| Compound | MIC [1] [µg/mL] | MIC [2, 10] [µg/mL] | MIC50 [2, 10] [µg/mL] | MIC90 [2, 11] [µg/mL] | MIC ([3]; 25 clinical strains E. faecium) [µg/mL] | MIC50 [3, 12] [µg/mL] | MIC90 [3, 13] [µg/mL] | MIC [4, 14] [µg/mL] | MIC50 [4, 14] [µg/mL] | MIC90 [4, 15] [µg/mL] | protective effects against infection [5] | ED50 [5] [mg/kg] | death of mice [6] | MIC50 [3] [µg/mL] | MIC90 [3] [µg/mL] | MIC90 [4] [µg/mL] | micronucleus inducing activity (bone marrow [9]) | further results |
| --- | --- | --- | --- | --- | --- | --- | --- | --- | --- | --- | --- | --- | --- | --- | --- | --- | --- | --- |
| CN1Cc2csc3c(C(=O)O)c(=O)c4cc(F)c(N5CCOC(CF)C5)c1c4n23 (stereo not drawn) [Compound (C), 9,1-(Methylimino)methano-7-fluoro-8-(2-fluoromethylmorpholino)-5-oxo-5H-thiazolo[3,2-a]quinoline-4-carboxylic acid] | 0.025 (≈ 0.0593 µM) | 0.05 to 3.13 (≈ 0.119 to 7.43 µM) | 0.1 (≈ 0.237 µM) | 3.13 (≈ 7.43 µM) | 0.05 to 6.25 (≈ 0.119 to 14.8 µM) | 0.78 (≈ 1.85 µM) | 3.13 (≈ 7.43 µM) | 0.006 to 0.2 (≈ 0.0142 to 0.475 µM) | 0.013 (≈ 0.0308 µM) | 0.2 (≈ 0.475 µM) | excellent protective effects against infection | 1.9 | no death of mice was observed |  |  |  |  | micronucleus inducing activity (bone marrow [7]): no nucleus inducing activity |
| COCC1CN(c2c(F)cc3c(=O)c(C(=O)O)c4scc5n4c3c2N(C)C5)CCO1 (stereo not drawn) [Compound (E), 9,1-(Methylimino)methano-7-fluoro-8-(2-methoxymethylmorpholino)-5-oxo-5H-thiazolo[3,2-a]quinoline-4-carboxylic acid] | 0.05 (≈ 0.115 µM) | 0.1 to 6.25 (≈ 0.231 to 14.4 µM) | 0.2 (≈ 0.461 µM) |  | 0.1 to 12.5 (≈ 0.231 to 28.8 µM) |  |  | 0.006 to 0.78 (≈ 0.0138 to 1.8 µM) | 0.013 (≈ 0.03 µM) |  |  |  |  | 3.13 (≈ 7.22 µM) | 6.25 (≈ 14.4 µM) | 0.78 (≈ 1.8 µM) | no nucleus inducing activity | MIC90 [2]: 6.25 µg/mL (≈ 14.4 µM); protective effects against infection ([8]; Experiment 4, in words): excellent protective effects against infection; ED50 ([8]; Staphylococcus aureus, IID803, 168 h, oral, 1 h after i.p. infection, mice, survival after one week, 3×10^7 CFU/ml, read-out: 50% effective dose (ED50)): 1.7 mg/kg |
| CC1CN(c2c(F)cc3c(=O)c(C(=O)O)c4scc5n4c3c2N(C)C5)CCO1 (stereo not drawn) [Compound (A), 9,1-(Methylimino)methano-7-fluoro-8-(2-methylmorpholino)-5-oxo-5H-thiazolo[3,2-a]quinoline-4-carboxylic acid] | 0.05 (≈ 0.124 µM) | 0.025 to 3.13 (≈ 0.062 to 7.76 µM) | 0.1 (≈ 0.248 µM) | 3.13 (≈ 7.76 µM) | 0.05 to 6.25 (≈ 0.124 to 15.5 µM) | 0.78 (≈ 1.93 µM) | 3.13 (≈ 7.76 µM) | 0.006 to 0.2 (≈ 0.0149 to 0.496 µM) | ≤ 0.006 | 0.2 (≈ 0.496 µM) | excellent protective effects against infection | 3.5 | no death of mice was observed |  |  |  |  |  |
| CN1Cc2csc3c(C(=O)O)c(=O)c4cc(F)c(N5CCOC(CO)C5)c1c4n23 (stereo not drawn) [Compound (B), 9,1-(Methylimino)methano-7-fluoro-8-(2-hydroxymethylmorpholino)-5-oxo-5H-thiazolo[3,2-a]quinoline-4-carboxylic acid] | 0.05 (≈ 0.119 µM) | 0.05 to 3.13 (≈ 0.119 to 7.46 µM) | 0.2 (≈ 0.477 µM) | 3.13 (≈ 7.46 µM) | 0.1 to 25 (≈ 0.238 to 59.6 µM) |  |  | 0.006 to 0.78 (≈ 0.0143 to 1.86 µM) | 0.013 (≈ 0.031 µM) |  | excellent protective effects against infection | 5.1 | no death of mice was observed | 1.56 (≈ 3.72 µM) | 6.25 (≈ 14.9 µM) | 0.78 (≈ 1.86 µM) | no nucleus inducing activity |  |

Reference: US5191079A, “Quinolinecarboxylic acid derivatives” (priority 1990, dated 1993)
